# The source made the active and inactive calls. The rule behind the calls is not given here.
# Tests used:
# PC-3 [1] = assay: Antiproliferative activity against human PC3 cells assessed as growth inhibition at 30 uM by MTS assay; format: functional; conditions: read-out: GI
# PC-3 [2] = assay: Antiproliferative activity against human PC3 cells assessed as growth inhibition by MTS assay; format: functional, cell-based
# DU-145 = assay: Antiproliferative activity against human DU145 cells assessed as growth inhibition by MTS assay; format: functional, cell-based
# MDA-MB-231 = assay: Antiproliferative activity against human MDA-MB-231 cells assessed as growth inhibition by MTS assay; format: functional, cell-based
# Tubulin (Sus scrofa) [3] = target: T1, Tubulin (Sus scrofa) (UniProt P02554+P02550); assay: Induction of purified porcine brain tubulin polymerization assessed as microtubule-stabilization at 50 uM by spectrophotometric analysis
# Tubulin (Sus scrofa) [4] = target: T1, Tubulin (Sus scrofa); assay: Induction of purified porcine brain tubulin polymerization at 50 uM by spectrophotometric analysis
# T1 sequence (P02550 whole entry, looked up): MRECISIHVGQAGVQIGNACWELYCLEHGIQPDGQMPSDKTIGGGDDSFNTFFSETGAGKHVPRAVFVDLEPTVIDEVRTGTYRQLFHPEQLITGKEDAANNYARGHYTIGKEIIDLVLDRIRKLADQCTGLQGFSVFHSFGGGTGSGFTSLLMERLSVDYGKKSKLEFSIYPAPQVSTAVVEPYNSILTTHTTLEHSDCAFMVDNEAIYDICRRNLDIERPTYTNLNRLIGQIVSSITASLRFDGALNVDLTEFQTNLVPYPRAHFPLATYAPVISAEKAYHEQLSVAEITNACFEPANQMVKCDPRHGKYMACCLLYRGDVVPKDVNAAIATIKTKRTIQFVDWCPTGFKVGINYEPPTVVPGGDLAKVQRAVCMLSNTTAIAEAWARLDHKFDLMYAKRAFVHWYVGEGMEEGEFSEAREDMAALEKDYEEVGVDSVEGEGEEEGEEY
# T1 sequence (P02554 whole entry, looked up): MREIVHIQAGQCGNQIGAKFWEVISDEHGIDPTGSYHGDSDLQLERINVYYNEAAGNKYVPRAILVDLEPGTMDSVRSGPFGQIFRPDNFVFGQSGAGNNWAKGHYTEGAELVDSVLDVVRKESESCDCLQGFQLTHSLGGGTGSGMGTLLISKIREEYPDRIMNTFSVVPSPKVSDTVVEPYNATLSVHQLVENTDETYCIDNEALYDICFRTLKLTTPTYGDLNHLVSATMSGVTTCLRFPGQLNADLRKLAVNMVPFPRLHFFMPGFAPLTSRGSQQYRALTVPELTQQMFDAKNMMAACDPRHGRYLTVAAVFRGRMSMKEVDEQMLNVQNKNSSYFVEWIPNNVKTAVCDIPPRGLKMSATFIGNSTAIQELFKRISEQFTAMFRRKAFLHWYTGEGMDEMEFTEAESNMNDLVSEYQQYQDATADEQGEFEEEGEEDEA
IC50 (PC-3 [2]) [µM],IC50 (DU-145) [µM],IC50 (MDA-MB-231) [µM],Activity (Tubulin (Sus scrofa) [3]),Activity (Tubulin (Sus scrofa) [4]),Structure (SMILES),inhibition of growth at 30 µM (PC-3 [1]) [%]
–,–,–,–,–,O=C1c2ccccc2C(=O)N1c1ccc2ccccc2c1,16
38.3,> 50,37.7,–,–,CC(C)c1cccc(C(C)C)c1N1C(=O)c2cccc([N+](=O)[O-])c2C1=O,–
–,15,> 50,–,–,CC(C)c1cccc(C(C)C)c1N1C(=O)c2ccc([N+](=O)[O-])cc2C1=O,–
–,–,–,–,–,O=C1c2ccccc2C(=O)N1c1cc(Cl)ccc1Cl,< 10
8.02,6.62,4.85,–,–,Cc1ccc2c(c1)C(=O)N(c1c(C(C)C)cccc1C(C)C)C2=O,–
> 50,> 50,> 50,inactive,–,Cc1cccc(C)c1N1C(=O)c2ccc(O)cc2C1=O,–
–,–,–,–,–,O=C1c2ccccc2C(=O)N1c1c(F)cccc1F,< 10
–,–,–,–,–,O=C1c2ccccc2C(=O)N1c1ccc(Cl)c(Cl)c1,< 10
4.01,7.12,4.12,–,–,CC(C)c1cccc(C(C)C)c1N1C(=O)c2ccccc2C1=O,–
–,–,–,–,–,Cc1cccc(C)c1N1C(=O)c2ccccc2C1=O,< 10
–,–,–,–,–,O=C1c2ccccc2C(=O)N1c1cccc2ccccc12,< 10
> 50,45.9,29.2,Active,–,CCc1cccc(CC)c1N1C(=O)c2ccc(O)cc2C1=O,–
–,–,–,–,–,Cc1ccc(N2C(=O)c3ccccc3C2=O)cc1C,< 10
–,–,–,–,–,O=C1c2ccccc2C(=O)N1c1ccc([N+](=O)[O-])c(C(F)(F)F)c1,< 10
–,–,–,–,–,COc1ccc(N2C(=O)c3ccccc3C2=O)cc1OC,10.2
8.3,5.74,5.35,Active,Active,CC(C)c1cccc(C(C)C)c1N1C(=O)c2ccc(O)cc2C1=O,> 90
–,–,–,–,–,O=C1c2ccccc2C(=O)N1c1ccc(Cl)cc1Cl,< 10
45.2,45.6,15,–,Active,CC(C)c1cccc(C(C)C)c1N1C(=O)c2cccc(O)c2C1=O,–
2.07,3.94,7.24,–,Active,CC(C)c1cccc(C(C)C)c1N1C(=O)c2ccc(N)cc2C1=O,–
6.26,8.14,7.24,–,–,CC(C)c1cccc(C(C)C)c1N1C(=O)c2cccc(N)c2C1=O,–
–,–,–,–,–,O=C1c2ccccc2C(=O)N1c1cc(Cl)cc(Cl)c1,< 10
6.4,9.16,5.56,–,–,CC(C)c1cccc(C(C)C)c1N1C(=O)c2ccc(C(=O)O)cc2C1=O,–
–,–,–,–,–,O=C1c2ccccc2C(=O)N1c1c(Br)cccc1Br,21.9
–,–,–,–,–,O=C1c2ccccc2C(=O)N1c1c(Cl)cccc1Cl,< 10
5.52,14.1,10.6,–,–,CC(C)c1cccc(C(C)C)c1N1C(=O)c2ccc(Cl)cc2C1=O,–
21.8,24.6,6.87,–,–,COC(=O)c1ccc2c(c1)C(=O)N(c1c(C(C)C)cccc1C(C)C)C2=O,–
